Assay results published in patent US9902716B2, “Fluorinated benzofuranyl-pyrimidine derivatives containing a sulfone group” (Bayer Pharma Aktiengesellschaft, priority 2014, dated 2018).

Key:
B16F10 cells = assay: Proliferation assay B16F10 (Method 3, crystal violet); type: cell-based; settings: Mus musculus, B16-F10, 96 h; B16F10, 4 days incubation; read-out: Inhibition of B16F10 cell proliferation IC50
Description: (§1) Cultivated tumour cells (HeLa, human cervical tumour cells, ATCC CCL-2; NCI-H460, human non-small cell lung carcinoma cells, ATCC HTB-177; A2780, human ovarian carcinoma cells, ECACC #93112519; DU 145, hormone-independent human prostate carcinoma cells, ATCC HTB-81; HeLa-MaTu-ADR, multidrug-resistant human cervical carcinoma cells, EPO-GmbH Berlin; Caco-2, human colorectal carcinoma cells, ATCC HTB-37; B16F10, mouse melanoma cells, ATCC CRL-6475) were plated at a density of 5,000 cells/well (DU145, HeLa-MaTu-ADR), 3,000 cells/well (NCI-H460, HeLa), 2,500 cells/well (A2780), 1,500 cells/well (Caco-2), or 1,000 cells/well (B16F10) in a 96-well multititer plate in 200 μL of their respective growth medium supplemented 10% fetal calf serum. After 24 hours, the cells of one plate (zero-point plate) were stained with crystal violet (see below), while the medium of the other plates was replaced by fresh culture medium (200 μl), to which the test substances were added in various concentrations (0 μM, as well as in the range of 0.001-10 μM; the final concentration of the solvent dimethyl sulfoxide was 0.5%). The cells were incubated for 4 days in the presence of test substances. Cell proliferation was determined by staining the cells with crystal violet: the cells were fixed by adding 20 μl/measuring point of an 11% glutaric aldehyde solution for 15 minutes at room temperature. After three washing cycles of the fixed cells with water, the plates were dried at room temperature. The cells were stained by adding 100 μl/measuring point of a 0.1% crystal violet solution (pH 3.0). After three washing cycles of the stained cells with water, the plates were dried at room temperature. The dye was dissolved by adding 100 μl/measuring point of a 10% acetic acid solution. The extinction was determined by photometry at a wavelength of 595 nm. The change of cell number, in percent, was calculated by normalization of the measured values to the extinction values of the zero-point plate (=0%) and the extinction of the untreated (0 μm) cells (=100%). The IC50 values (inhibitory concentration at 50% of maximal effect) were determined by means of a 4 parameter fit.

NCI-H460 cells = assay: Proliferation assay NCI-H460 (Method 3, crystal violet); type: cell-based; settings: Homo sapiens, 96 h; NCI-H460, 4 days incubation; read-out: Inhibition of NCI-H460 cell proliferation IC50
Description: as §1

CDK9/CycT1 = target: T1, CDK9/CycT1 (Homo sapiens, UniProt P50750); assay: CDK9/CycT1 high ATP kinase assay (Method 1b, TR-FRET); type: biochemical; settings: 2 mM ATP; for IC50: Method 1b; for Selectivity high ATP CDK9 over high ATP CDK2: IC50 (high ATP CDK2)/IC50 (high ATP CDK9): Methods 1b and 2b
T1 construct: Recombinant full-length His-tagged human CDK9 and CycT1; His; purchased Invitrogen PV4131; host or cells: insect cells
Description: 1b. CDK9/CycT1 High ATP Kinase Assay
CDK9/CycT1-inhibitory activity of compounds of the present invention at a high ATP concentration after preincubation of enzyme and test compounds was quantified employing the CDK9/CycT1 TR-FRET assay as described in the following paragraphs.
Recombinant full-length His-tagged human CDK9 and CycT1, expressed in insect cells and purified by Ni-NTA affinity chromatography, were purchase from Invitrogen (Cat. No PV4131). As substrate for the kinase reaction biotinylated peptide biotin-Ttds-YISPLKSPYKISEG (C-terminus in amid form) was used which can be purchased e.g. form the company JERINI peptide technologies (Berlin, Germany). For the assay 50 nl of a 100 fold concentrated solution of the test compound in DMSO was pipetted into a black low volume 384 well microtiter plate (Greiner Bio-One, Frickenhausen, Germany), 2 μl of a solution of CDK9/CycT1 in aqueous assay buffer [50 mM Tris/HCl pH 8.0, 10 mM MgCl2, 1.0 mM dithiothreitol, 0.1 mM sodium ortho-vanadate, 0.01% (v/v) Nonidet-P40 (Sigma)] were added and the mixture was incubated for 15 min at 22° C. to allow pre-binding of the test compounds to the enzyme before the start of the kinase reaction. Then the kinase reaction was started by the addition of 3 μl of a solution of adenosine-tri-phosphate (ATP, 3.3 mM=> final conc. in the 5 μl assay volume is 2 mM) and substrate (1.67 μM=> final conc. in the 5 μl assay volume is 1 μM) in assay buffer and the resulting mixture was incubated for a reaction time of 25 min at 22° C. The concentration of CDK9/CycT1 was adjusted depending of the activity of the enzyme lot and was chosen appropriate to have the assay in the linear range, typical concentrations were in the range of 0.5 μg/mL. The reaction was stopped by the addition of 5 μl of a solution of TR-FRET detection reagents (0.2 μM streptavidine-XL665 [Cisbio Bioassays, Codolet, France] and 1 nM anti-RB(pSer807/pSer811)-antibody from BD Pharmingen [#558389] and 1.2 nM LANCE EU-W1024 labeled anti-mouse IgG antibody [Perkin-Elmer, product no. AD0077]) in an aqueous EDTA-solution (100 mM EDTA, 0.2% (w/v) bovine serum albumin in 100 mM HEPES/NaOH pH 7.0).
The resulting mixture was incubated 1 h at 22° C. to allow the formation of complex between the phosphorylated biotinylated peptide and the detection reagents. Subsequently the amount of phosphorylated substrate was evaluated by measurement of the resonance energy transfer from the Euchelate to the streptavidine-XL. Therefore, the fluorescence emissions at 620 nm and 665 nm after excitation at 350 nm was measured in a HTRF reader, e.g. a Rubystar (BMG Labtechnologies, Offenburg, Germany) or a Viewlux (Perkin-Elmer). The ratio of the emissions at 665 nm and at […] was taken as the measure for the amount of phosphorylated substrate. The data were normalised (enzyme reaction without inhibitor=0% inhibition, all other assay components but no enzyme=100% inhibition).

Caco-2 cells = assay: Proliferation assay Caco-2 (Method 3, crystal violet); type: cell-based; settings: Homo sapiens, 96 h; Caco-2, 4 days incubation; read-out: Inhibition of Caco-2 cell proliferation IC50
Description: as §1, with “The IC50 values (inhibitory concentration at 50% of maximal effect) were determined by means of a 4 parameter fit.” left out

T1 sequence (P50750 whole entry): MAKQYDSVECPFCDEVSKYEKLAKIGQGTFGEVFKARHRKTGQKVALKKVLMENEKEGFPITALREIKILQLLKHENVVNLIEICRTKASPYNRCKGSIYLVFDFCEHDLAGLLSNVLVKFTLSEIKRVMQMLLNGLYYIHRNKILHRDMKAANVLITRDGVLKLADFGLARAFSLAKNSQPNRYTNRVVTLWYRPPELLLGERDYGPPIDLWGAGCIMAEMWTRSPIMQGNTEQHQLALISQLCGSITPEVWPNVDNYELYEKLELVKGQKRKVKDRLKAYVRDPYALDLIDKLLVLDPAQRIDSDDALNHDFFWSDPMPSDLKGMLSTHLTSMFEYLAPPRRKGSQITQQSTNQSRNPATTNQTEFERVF
T1 sequence (O60563 whole entry partner): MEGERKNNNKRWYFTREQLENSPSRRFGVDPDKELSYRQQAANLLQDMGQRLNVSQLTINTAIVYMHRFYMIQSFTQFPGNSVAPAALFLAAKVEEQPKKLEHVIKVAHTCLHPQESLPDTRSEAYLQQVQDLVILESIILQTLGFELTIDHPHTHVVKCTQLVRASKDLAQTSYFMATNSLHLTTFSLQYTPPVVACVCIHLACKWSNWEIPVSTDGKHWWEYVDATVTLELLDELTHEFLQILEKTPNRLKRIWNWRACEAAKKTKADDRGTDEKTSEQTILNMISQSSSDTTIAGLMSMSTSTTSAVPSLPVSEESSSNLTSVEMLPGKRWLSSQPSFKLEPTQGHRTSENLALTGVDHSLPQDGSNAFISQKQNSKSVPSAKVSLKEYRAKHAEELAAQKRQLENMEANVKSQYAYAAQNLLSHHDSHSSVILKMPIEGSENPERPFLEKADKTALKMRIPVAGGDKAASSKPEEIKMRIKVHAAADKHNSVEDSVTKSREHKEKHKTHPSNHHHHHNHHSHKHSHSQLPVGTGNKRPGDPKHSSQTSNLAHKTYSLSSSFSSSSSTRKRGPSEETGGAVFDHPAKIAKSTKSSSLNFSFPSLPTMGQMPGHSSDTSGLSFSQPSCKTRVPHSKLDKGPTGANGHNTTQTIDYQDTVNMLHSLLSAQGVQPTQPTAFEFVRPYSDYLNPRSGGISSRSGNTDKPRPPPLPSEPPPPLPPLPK

IC50 (B16F10 cells) | IC50 (NCI-H460 cells) | IC50 (CDK9/CycT1) | Selectivity high ATP CDK9 over high ATP CDK2: IC50 (high ATP CDK2)/IC50 (high ATP CDK9) (CDK9/CycT1) | IC50 (Caco-2 cells) | Compound
0.39 µM | 0.33 µM | 0.009 µM | 147 | 0.3 µM | CS(=O)(=O)Cc1cccc(Nc2ncc(F)c(-c3ccc(F)c4ccoc34)n2)c1 [Example 1, 5-Fluoro-4-(4-fluoro-1-benzofuran-7-yl)-N-{3-[(methylsulfonyl)methyl]-phenyl}pyrimidin-2-amine]
0.1 µM | 0.114 µM | 0.009 µM | 102 |  | CCS(=O)(=O)Cc1cccc(Nc2ncc(F)c(-c3ccc(F)c4ccoc34)n2)c1 [Example 2, N-{3-[(Ethylsulfonyl)methyl]phenyl}-5-fluoro-4-(4-fluoro-1-benzofuran-7-yl)pyrimidin-2-amine]
0.245 µM | 0.23 µM | 0.002 µM |  | 0.392 µM | CS(=O)(=O)Cc1cc(F)cc(Nc2ncc(F)c(-c3ccc(F)c4ccoc34)n2)c1 [Example 3]
0.242 µM | 0.146 µM | 0.001 µM | 8560 | 0.313 µM | Cc1cc(CS(C)(=O)=O)cc(Nc2ncc(F)c(-c3ccc(F)c4ccoc34)n2)c1 [Example 4, 5-Fluoro-4-(4-fluoro-1-benzofuran-7-yl)-N-{3-methyl-5-[(methylsulfonyl)methyl]-phenyl}pyrimidin-2-amine]
